pEC50: −log10 of the molar value. Counter-ions that a name gives are not always drawn. Like-named read-outs stand apart in the source and are kept apart here.
Columns and labels:
β3AR = biological target: T1, β3AR (Rattus norvegicus, UniProt P26255); conditions: rats, intravenous administration, cited from earlier work
T1 construct: Following intravenous administration to rats; host or cells: living rats (bladder, in vivo)

[1] = biological target: T2, human β3 adrenergic receptor (Homo sapiens, UniProt P13945); test: Functional assay: cAMP production (LANCE TR-FRET) in CHO cells stably transfected with cloned β3 adrenergic receptor; assay type: cell-based
T2 construct: stably transfected with the cloned β-adrenergic receptor (β1, β2 or β3); expressed in transfected cells; host or cells: Chinese hamster ovary (CHO) cells, stably transfected
T2 sequence (P13945 whole entry): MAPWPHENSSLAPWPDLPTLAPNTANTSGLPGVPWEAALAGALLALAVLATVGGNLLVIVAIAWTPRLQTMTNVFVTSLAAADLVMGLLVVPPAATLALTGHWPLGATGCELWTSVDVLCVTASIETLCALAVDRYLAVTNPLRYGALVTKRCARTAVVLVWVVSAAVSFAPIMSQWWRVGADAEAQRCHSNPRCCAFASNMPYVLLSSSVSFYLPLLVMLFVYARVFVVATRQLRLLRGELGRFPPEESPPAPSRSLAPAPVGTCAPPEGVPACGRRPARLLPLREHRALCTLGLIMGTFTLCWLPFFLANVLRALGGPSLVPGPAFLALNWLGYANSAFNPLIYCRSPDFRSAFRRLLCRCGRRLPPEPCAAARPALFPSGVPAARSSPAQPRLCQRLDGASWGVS

[2] = Table 3, cAMP production, CHO cells expressing human β3 AR, read-out: Human β3 functional
[3] = cAMP production, CHO cells expressing human β3 AR, read-out: human Beta-3 agonist functional activity
[4] = Table 2, cAMP production, CHO cells expressing human β3 AR, read-out: Human β3 functional

T1 sequence (P26255 whole entry): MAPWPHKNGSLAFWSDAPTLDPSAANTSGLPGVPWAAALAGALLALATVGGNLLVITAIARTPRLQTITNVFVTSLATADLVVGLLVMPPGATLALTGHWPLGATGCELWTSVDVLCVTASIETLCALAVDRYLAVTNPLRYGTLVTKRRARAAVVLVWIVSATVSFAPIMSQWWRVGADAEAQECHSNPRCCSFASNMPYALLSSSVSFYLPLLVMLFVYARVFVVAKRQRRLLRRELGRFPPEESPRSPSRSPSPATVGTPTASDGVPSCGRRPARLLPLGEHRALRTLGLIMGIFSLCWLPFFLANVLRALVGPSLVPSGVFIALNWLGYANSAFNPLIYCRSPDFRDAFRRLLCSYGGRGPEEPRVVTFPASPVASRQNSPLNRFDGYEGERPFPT

Row | pEC50 [1, 2] | pEC50 [1, 4] | Compound | further results
1 | 7.00 to 7.96 | – | O=C(Nc1ccc(CC2CC[C@H]([C@H](O)c3cccnc3)N2)cc1)C1CCCc2ccnn21 (single isomer, unassigned) [Example 140] | –
2 | 7.00 to 7.96 | – | O=C(Nc1ccc(CC2CC[C@H]([C@H](O)c3cccnc3)N2)cc1)[C@@H]1CCc2ncnn21 (single isomer, unassigned) [Example 194] | –
3 | 6.00 to 7.00 | – | CC(C)c1nc2c(s1)CCC2C(=O)Nc1ccc(CC2CC[C@H]([C@H](O)c3cccnc3)N2)cc1 (single isomer, unassigned) [Example 123] | –
4 | – | 7.00 to 7.96 | O=C(Cc1n[nH]c(=O)[nH]1)Nc1ccc(CC2CC[C@H]([C@H](O)c3cccnc3)N2)cc1 (some centres unmarked) [Example 73] | –
5 | 8.00 to 9.00 | – | CC(C(=O)Nc1ccc(CC2CC[C@H]([C@H](O)c3cccnc3)N2)cc1)n1cnccc1=O (single isomer, unassigned) [Example 164] | –
6 | 7.00 to 7.96 | – | O=C(Nc1ccc(CC2CC[C@H]([C@H](O)c3cccnc3)N2)cc1)C1CCc2sc(Cl)nc21 (single isomer, unassigned) [Example 187] | –
7 | 8.00 to 9.00 | – | CC(C(=O)Nc1ccc(CC2CC[C@H]([C@H](O)c3cccnc3)N2)cc1)n1ccnn1 (single isomer, unassigned) [Example 149] | –
8 | 8.00 to 9.00 | – | CC(C(=O)Nc1ccc(CC2CC[C@H]([C@H](O)c3cccnc3)N2)cc1)c1csc(N)n1 (single isomer, unassigned) [Example 105] | –

The next lines start with the compound.

Row | Compound | pEC50 [1, 2] | pEC50 [1, 4] | further results
9 | C[C@H](Cc1ccc2c(c1)OC(C(=O)[O-])(C(=O)[O-])O2)NC[C@H](O)c1cccc(Cl)c1.[Na+].[Na+] [CL316243] | – | – | bladder capacity (β3AR; cystometric studies): increases bladder capacity; bladder pressure (β3AR): reduces bladder pressure
10 | C[C@H](C(=O)Nc1ccc(C[C@@H]2CC[C@H]([C@H](O)c3cccnc3)N2)cc1)n1ccccc1=O (single isomer, unassigned) [Example 96, trifluoroacetic acid salt] | – | – | pEC50 [1, 3]: > 8.00
11 | CC(NC(=O)c1nc[nH]n1)C(=O)Nc1ccc(C[C@@H]2CC[C@H]([C@H](O)c3cccnc3)N2)cc1 (some centres unmarked) [Example 252] | – | – | pEC50 ([1]; Table 6, human β3 functional activity given as ranges, read-out: Human β3 functional): 8.00 to 9.00
12 | O=C(Cn1c(=O)ncc2ccccc21)Nc1ccc(CC2CC[C@H]([C@H](O)c3cccnc3)N2)cc1 (some centres unmarked) [Example 13] | – | 8.00 to 9.00 | –
13 | O=C(Cc1csc(C(F)(F)F)n1)Nc1ccc(CC2CC[C@H]([C@H](O)c3cccnc3)N2)cc1 (some centres unmarked) [Example 29] | – | 7.00 to 7.96 | –
14 | Cc1nnc(CC(=O)Nc2ccc(CC3CC[C@H]([C@H](O)c4cccnc4)N3)cc2)[nH]1 (some centres unmarked) [Example 23] | – | 6.00 to 7.00 | –
15 | O=C(N1CCc2ccc(S(=O)(=O)Nc3ccc(CC4CC[C@H]([C@H](O)c5cccnc5)N4)cc3)cc2C1)C(F)(F)F (some centres unmarked) [Example 233] | – | – | pEC50 ([1]; Table 4, cAMP production, CHO cells expressing human β3 AR, read-out: Human β3 functional): 6.00 to 7.00
16 | O=C(Cc1nnc(-c2ccncc2)[nH]1)Nc1ccc(CC2CC[C@H]([C@H](O)c3cccnc3)N2)cc1 (some centres unmarked) [Example 25] | – | 7.00 to 7.96 | –
17 | O=C(Cn1ccccc1=O)Nc1ccc(CC2CC[C@H]([C@H](O)c3cccnc3)N2)cc1 (some centres unmarked) [Example 40] | – | 8.00 to 9.00 | –
18 | Cc1nc(CC(=O)Nc2ccc(CC3CC[C@H]([C@H](O)c4cccnc4)N3)cc2)c(C)s1 (some centres unmarked) [Example 10] | – | 7.00 to 7.96 | –
19 | O=C(CN1CCCC1=O)Nc1ccc(C[C@@H]2CC[C@H]([C@H](O)c3cccnc3)N2)cc1 [Example 2, N-[4-({(2S,5R)-5-[(R)-Hydroxy(pyridin-3-yl)methyl]pyrrolidin-2-yl}methyl)phenyl]-2-(2-oxopyrrolidin-1-yl)acetamide, trfluoroacetic acid salt] | – | – | pEC50 [1, 3]: > 7.00
